# What was measured:
# [1] = molecular target: GDP-bound NRAS wild-type protein (Homo sapiens, UniProt P01111); assay: Binding to NRAS by surface plasmon resonance (SPR), Single Cycle Kinetics; details: for NRAS/KRAS (ratio of KD value for NRAS to KD value for KRAS) / NRAS/KRAS (ratio of KD value with respect to NRAS to KD value with respect to KRAS): GDP-bound NRAS wild-type vs GDP-bound KRAS wild-type
# [2] = molecular target: GDP-bound HRAS wild-type protein (Homo sapiens, UniProt P01112); assay: Binding to HRAS by surface plasmon resonance (SPR), Single Cycle Kinetics; details: for HRAS/KRAS (ratio of KD value for HRAS to KD value for KRAS) / HRAS/KRAS (ratio of KD value with respect to HRAS to KD value with respect to KRAS): GDP-bound HRAS wild-type vs GDP-bound KRAS wild-type
# GDP-bound HRAS wild-type protein, sequence (P01112 whole entry): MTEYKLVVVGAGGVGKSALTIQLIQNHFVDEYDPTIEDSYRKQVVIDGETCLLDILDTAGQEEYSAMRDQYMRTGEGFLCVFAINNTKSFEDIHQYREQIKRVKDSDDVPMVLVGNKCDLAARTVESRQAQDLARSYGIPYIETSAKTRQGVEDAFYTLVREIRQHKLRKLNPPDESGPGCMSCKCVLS
# GDP-bound NRAS wild-type protein, sequence (P01111 whole entry): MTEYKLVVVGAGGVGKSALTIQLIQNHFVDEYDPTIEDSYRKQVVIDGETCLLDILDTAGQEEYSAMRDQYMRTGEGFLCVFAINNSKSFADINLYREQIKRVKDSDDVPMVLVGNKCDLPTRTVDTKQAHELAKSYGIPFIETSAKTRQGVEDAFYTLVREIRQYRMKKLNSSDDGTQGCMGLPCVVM
structure (smiles),measurement,setting,value
CCCC[C@H]1C(=O)N[C@@H]([C@@H](C)CC)C(=O)N(C)CC(=O)N(C)[C@H]2C/C=C\CCN(C2=O)[C@@H](Cc2ccc(C(F)(F)F)cc2)C(=O)N(C)CC(=O)N[C@@H](CCc2ccc(C(F)(F)F)c(Cl)c2)C(=O)N2C[C@H](OCC)C[C@H]2C(=O)NC2(CC(C)(C)C2)C(=O)N(C)[C@@H](C2CCCC2)C(=O)N(C)[C@H](C(=O)N(C)C)CC(=O)N1C [PP1750],NRAS/KRAS (ratio of KD value for NRAS to KD value for KRAS),[1]; SPR,A (a compound having 10 or more and less than 20 is denoted as A)
same,HRAS/KRAS (ratio of KD value for HRAS to KD value for KRAS),[2]; SPR,B (a compound having 3 or more and less than 10 is denoted as B)
CCO[C@@H]1C[C@H]2C(=O)NC3(CCC3)C(=O)N(C)[C@@H](C3CCCC3)C(=O)N(C)[C@H](C(=O)N(CC)CC)CC(=O)N(C)[C@@H](CC(C)C)C(=O)N[C@@H]([C@@H](C)CC)C(=O)N(C)CC(=O)N(C)[C@H]3C/C=C\CCN(C3=O)[C@@H](Cc3ccc(C(F)(F)F)cc3)C(=O)N(C)CC(=O)N[C@@H](CCc3cc(F)c(C(F)(F)F)c(F)c3)C(=O)N2C1 [PP1306],NRAS/KRAS (ratio of KD value for GDP-bound NRAS wild-type protein to KD value for KRAS),"[1]; SPR, KD ratio class",AA (a compound having 20 or more is denoted as AA)
same,HRAS/KRAS (ratio of KD value for GDP-bound HRAS wild-type protein to KD value for KRAS),"[2]; SPR, KD ratio class",A (a compound having 10 or more and less than 20 is denoted as A)
CC[C@H](C)[C@@H]1NC(=O)[C@H](CC(C)C)N(C)C(=O)C[C@@H](C(=O)N2CCOCC2)N(C)C(=O)[C@H](C2CCCC2)N(C)C(=O)C2(CCC2)NC(=O)[C@@H]2CC(F)(F)CN2C(=O)[C@H](CCc2cc(F)c(C(F)(F)F)c(F)c2)NC(=O)CN(C)C(=O)[C@H](Cc2ccc(C(F)(F)F)cc2)N2CCCC[C@@H](C2=O)N(C)C(=O)CN(C)C1=O [PP0575],NRAS/KRAS (ratio of KD value with respect to GDP-bound NRAS wild-type protein to KD value with respect to KRAS),[1]; SPR,B (a compound having 3 or more and less than 10 is denoted as B)
same,HRAS/KRAS (ratio of KD value with respect to GDP-bound HRAS wild-type protein to KD value with respect to KRAS),[2]; SPR,B (a compound having 3 or more and less than 10 is denoted as B)
CCCOC[C@H]1C(=O)N[C@@H]([C@@H](C)CC)C(=O)N(C)CC(=O)N(C)[C@H]2C/C=C\CCN(C2=O)[C@@H](Cc2ccc(C(F)(F)F)cc2)C(=O)N(C)CC(=O)N[C@@H](CCc2cc(F)c(C(F)(F)F)c(F)c2)C(=O)N2C[C@H](OCC)C[C@H]2C(=O)NC2(CCC2)C(=O)N(C)[C@@H](C2CCCC2)C(=O)N(C)[C@H](C(=O)N(C)CCC)CC(=O)N1C [PP1668],NRAS/KRAS (ratio of KD value for NRAS to KD value for KRAS),[1]; SPR,A (a compound having 10 or more and less than 20 is denoted as A)
same,HRAS/KRAS (ratio of KD value for HRAS to KD value for KRAS),[2]; SPR,A (a compound having 10 or more and less than 20 is denoted as A)
CC[C@H](C)[C@@H]1NC(=O)[C@H](CC(C)C)N(C)C(=O)C[C@@H](C(=O)N2CCOCC2)N(C)C(=O)[C@H](C2CCCC2)N(C)C(=O)C2(CCC2)NC(=O)[C@@H]2C[C@@H](OCC3CCCC3)CN2C(=O)[C@H](CCc2cc(F)c(C(F)(F)F)c(F)c2)NC(=O)CN(C)C(=O)[C@H](Cc2ccc(C(F)(F)F)cc2)N2CCCC[C@@H](C2=O)N(C)C(=O)CN(C)C1=O [PP1015],NRAS/KRAS (ratio of KD value with respect to NRAS to KD value with respect to KRAS),[1]; SPR,C (A compound having a KD ratio of 0.1 or more and less than 3 is denoted as C)
same,HRAS/KRAS (ratio of KD value with respect to HRAS to KD value with respect to KRAS),[2]; SPR,C (A compound having a KD ratio of 0.1 or more and less than 3 is denoted as C)
CC[C@H](C)[C@@H]1NC(=O)[C@H](CC(C)C)N(C)C(=O)C[C@@H](C(=O)N2C[C@@H](C)O[C@@H](C)C2)N(C)C(=O)[C@H](C2CCCC2)N(C)C(=O)C2(CCCC2)NC(=O)[C@@H]2CCCN2C(=O)[C@H](CCc2ccc(C(F)(F)F)c(Cl)c2)NC(=O)CN(C)C(=O)[C@H](Cc2ccc(F)cc2)N2CCCCC[C@@H](C2=O)N(C)C(=O)CN(C)C1=O [PP1151],NRAS/KRAS (ratio of KD value with respect to NRAS to KD value with respect to KRAS),[1]; SPR,B (a compound having 3 or more and less than 10 is denoted as B)
same,HRAS/KRAS (ratio of KD value with respect to HRAS to KD value with respect to KRAS),[2]; SPR,B (a compound having 3 or more and less than 10 is denoted as B)
CC[C@H](C)[C@@H]1NC(=O)[C@H](C)N(C)C(=O)C[C@@H](C(=O)N(C)C)N(C)C(=O)[C@H](C2CCCC2)N(C)C(=O)C2(CCCC2)NC(=O)[C@@H]2CC(F)(F)CN2C(=O)[C@H](CCc2cc(F)c(C(F)(F)F)c(F)c2)NC(=O)CN(C)C(=O)[C@H](Cc2ccc(C(F)(F)F)cc2)N2CCCCC[C@@H](C2=O)N(C)C(=O)CN(C)C1=O [PP0472],NRAS/KRAS (ratio of KD value with respect to GDP-bound NRAS wild-type protein to KD value with respect to KRAS),[1]; SPR,B (a compound having 3 or more and less than 10 is denoted as B)
same,HRAS/KRAS (ratio of KD value with respect to GDP-bound HRAS wild-type protein to KD value with respect to KRAS),[2]; SPR,B (a compound having 3 or more and less than 10 is denoted as B)
CCC[C@H]1C(=O)N[C@@H]([C@@H](C)CC)C(=O)N(C)CC(=O)N(C)[C@H]2C/C=C\CCN(C2=O)[C@@H](Cc2ccc(C(F)(F)F)cc2)C(=O)N(C)CC(=O)N[C@@H](CCc2ccc(Cl)c(C(F)(F)F)c2)C(=O)N2C[C@H](OCC)C[C@H]2C(=O)NC2(CC(C)(C)C2)C(=O)N(C)[C@@H](C(CC)CC)C(=O)N(C)[C@H](C(=O)N(C)C)CC(=O)N1C [PP2785],NRAS/KRAS (ratio of KD value with respect to GDP-bound NRAS wild-type protein to KD value with respect to KRAS),[1]; class symbols,AA (a compound having 20 or more is denoted as AA)
same,HRAS/KRAS (ratio of KD value with respect to GDP-bound HRAS wild-type protein to KD value with respect to KRAS),[2]; class symbols,A (a compound having 10 or more and less than 20 is denoted as A)
CC[C@H](C)[C@@H]1NC(=O)[C@H](CC(C)C)N(C)C(=O)C[C@@H](C(=O)N(C)C)N(C)C(=O)[C@H](C2CCCC2)N(C)C(=O)C2(CCC2)NC(=O)[C@@H]2C[C@H](C)CN2C(=O)[C@H](CCc2cc(F)c(C(F)(F)F)c(F)c2)NC(=O)CN(C)C(=O)[C@H](Cc2ccc(C)cc2)N2CC/C=C\C[C@@H](C2=O)N(C)C(=O)CN(C)C1=O [PP1864],NRAS/KRAS (ratio of KD value for NRAS to KD value for KRAS),[1]; SPR,A (a compound having 10 or more and less than 20 is denoted as A)
same,HRAS/KRAS (ratio of KD value for HRAS to KD value for KRAS),[2]; SPR,B (a compound having 3 or more and less than 10 is denoted as B)
CCO[C@@H]1C[C@H]2C(=O)NC3(CCC3)C(=O)N(C)[C@@H](C3CCCC3)C(=O)N(C)[C@H](C(=O)N(C)C)CC(=O)N(C)[C@@H](CC3CCCC3)C(=O)N[C@@H]([C@@H](C)CC)C(=O)N(C)CC(=O)N(C)[C@H]3C/C=C\CCN(C3=O)[C@@H](Cc3ccc(C)cc3)C(=O)N(C)CC(=O)N[C@@H](CCc3ccc(C4CC4)c(C)c3)C(=O)N2C1 [PP2685],NRAS/KRAS (ratio of KD value with respect to GDP-bound NRAS wild-type protein to KD value with respect to KRAS),[1]; class symbols,A (a compound having 10 or more and less than 20 is denoted as A)
same,HRAS/KRAS (ratio of KD value with respect to GDP-bound HRAS wild-type protein to KD value with respect to KRAS),[2]; class symbols,A (a compound having 10 or more and less than 20 is denoted as A)
CCO[C@@H]1C[C@H]2C(=O)NC3(CC(C)(C)C3)C(=O)N(C)[C@@H](C(CC)CC)C(=O)N(C)[C@H](C(=O)N3CCCCC3)CC(=O)N(C)[C@@H](COC)C(=O)N[C@@H]([C@@H](C)CC)C(=O)N(C)CC(=O)N(C)[C@H]3C/C=C\CCN(C3=O)[C@@H](Cc3ccc(C(F)(F)F)cc3)C(=O)N(C)CC(=O)N[C@@H](CCc3cc(F)c(C(F)(F)F)c(F)c3)C(=O)N2C1 [PP2606],NRAS/KRAS (ratio of KD value with respect to GDP-bound NRAS wild-type protein to KD value with respect to KRAS),[1]; class symbols,AA (a compound having 20 or more is denoted as AA)
same,HRAS/KRAS (ratio of KD value with respect to GDP-bound HRAS wild-type protein to KD value with respect to KRAS),[2]; class symbols,AA (a compound having 20 or more is denoted as AA)
CC[C@H](C)[C@@H]1NC(=O)[C@H](CC)N(C)C(=O)C[C@@H](C(=O)N(C)C)N(C)C(=O)[C@H](C2CCCC2)N(C)C(=O)C2(CCC2)N(C)C(=O)[C@@H]2CCCN2C(=O)[C@H](CCc2cc(F)c(C(F)(F)F)c(F)c2)NC(=O)CN(C)C(=O)[C@H](Cc2ccc(C)cc2)N2CC/C=C\C[C@@H](C2=O)N(C)C(=O)[C@@H]2CCCN2C1=O [PP1786],NRAS/KRAS (ratio of KD value for NRAS to KD value for KRAS),[1]; SPR,A (a compound having 10 or more and less than 20 is denoted as A)
same,HRAS/KRAS (ratio of KD value for HRAS to KD value for KRAS),[2]; SPR,B (a compound having 3 or more and less than 10 is denoted as B)

# From patent US20250230193A1, “CYCLIC COMPOUND HAVING SELECTIVE KRAS INHIBITORY EFFECT ON HRAS AND NRAS” (CHUGAI SEIYAKU KABUSHIKI KAISHA, priority 2022, published 2025)
